Assay results from patent US20050245527A1, “Nitrogen containing heterocyclic compounds and medicines containing the same” (priority 2002, published 2005).

What was measured:
sodium channels = assay type: cell-based; settings: read-out: IC50 (μM), sodium channel-inhibiting activity; rat fetal cultured hippocampal neurons, SBFI fluorescence in the presence of 4-aminopyridine, 5 minutes after addition, 1 μM tetrodotoxin = 100%
[1] = system: left saphenous nerve of rats (ectopic firing); test: Inhibition of ectopic firing; assay type: in vivo; settings: Rattus norvegicus, iv; rats with cut left saphenous nerve, urethane anesthesia, compound via catheter in right cervical vein, number of firings in 10 seconds; read-out: Inhibition of ectopic firing (ID50)
Description: <Inhibition of Ectopic Firing>
(1) The inhibitory effect on ectopic firing was evaluated by the following method, with reference to Burchiel, K J., Exp. Neurol., 102, 249-253 (1988).
(2) The left saphenous nerve of rats, in which ectopic firing was observed, was cut near the knee joint, and approximately 3 mm was cut off to avoid reattachment of the cut nerve. After more than a week, the left saphenous nerve was exposed under urethane (1 g/kg body weight) anesthesia, and the proximal part up to approximately 1 cm from the cut site was detached from the surrounding tissue. A catheter was inserted in the right cervical vein beforehand for administration of the compound.
(3) The detached nerve was placed on a platinum hook electrode and wetted with liquid paraffin to avoid drying of the nerve. The electrode was connected to a microelectrode amplifier, and the change in potential was recorded from an oscilloscope through an A/D converter onto a computer. The recorded nerve firing was evaluated based on the number of firings in 10 seconds, using analyzing software (AcqKnowledge).

In the case of Cc1ccccc1OCC1CCN(Cc2ncc[nH]c2=O)CC1 [Example 147, 3-[4-(2-Methylphenoxymethyl)piperidino]methyl-1H-pyrazin-2-one], the IC50 (sodium channels) is reported as 2.5 µM and the ED50 [1] is reported as < 0.5 mg/kg.

For O=c1[nH]ccnc1CN1CCC(COc2ccccc2OC(F)(F)F)CC1 [Example 167, 3-[4-[2-(Trifluoromethoxy)phenoxymethyl]piperidino]methyl-1H-pyrazin-2-one], the IC50 (sodium channels) was 2.3 µM and the ED50 [1] was < 0.5 mg/kg.

For O=c1[nH]ccnc1CN1CCC(OCc2ccccc2F)CC1 [Example 141, 3-[4-(2-Fluorobenzyloxy)piperidino]methyl-1H-pyrazin-2-one], the ED50 [1] was < 0.5 mg/kg.

For Cc1ccccc1OCC1CCCN(Cc2ncc[nH]c2=O)C1 (stereo not drawn) [Example 154, 3-[3-(2-Methylphenoxymethyl)piperidino]methyl-1H-pyrazin-2-one], the IC50 (sodium channels) was 3.1 µM and the ED50 [1] was 0.5 to 1 mg/kg.

For O=C(Cc1c(F)cccc1C(F)(F)F)C1CCN(Cc2ncc[nH]c2=O)CC1 [Example 376, 3-[4-[2-[2-Fluoro-6-(trifluoromethyl)phenyl]acetyl]piperidino]methyl-1H-pyrazin-2-one], the IC50 (sodium channels) was 1.1 µM and the ED50 [1] was < 0.5 mg/kg.

In the case of O=c1[nH]ccnc1CN1CCC(COc2cc(F)ccc2F)CC1 [Example 151, 3-[4-(2,5-Difluorophenoxymethyl)piperidino]methyl-1H-pyrazin-2-one], the IC50 (sodium channels) is reported as 2.9 µM and the ED50 [1] is reported as 0.5 to 1 mg/kg.

With O=c1[nH]cccc1CN1CCC(CCc2ccccc2)(COc2ccccc2F)CC1 [Example 257, 3-[4-(2-Fluorophenoxymethyl)-4-(2-phenylethyl)piperidino]methyl-1H-pyridin-2-one] the ED50 [1] was < 0.5 mg/kg.

Work on Cc1ccccc1OCC1(O)CCN(Cc2ccc[nH]c2=O)CC1 [Example 252, 3-[4-Hydroxy-4-(2-methylphenoxymethyl)piperidino]methyl-1H-pyridin-2-one] yielded an ED50 [1] of 0.5 to 1 mg/kg.

O=c1cncc(CCN2CCC(COc3ccc(F)cc3F)CC2)[nH]1 [Example 239, 6-[2-[4-(2,4-Difluorophenoxymethyl)piperidino]ethyl]-1H-pyrazin-2-one] was tested, and the IC50 (sodium channels) was 9.1 µM and the ED50 [1] was 0.5 to 1 mg/kg.

For CC1(C(=O)Cc2ccccc2C(F)(F)F)CCN(Cc2ncc[nH]c2=O)CC1 [Example 373, 3-[4-Methyl-4-[2-[2-(trifluoromethyl)phenyl]acetyl]piperidino]methyl-1H-pyrazin-2-one], the IC50 (sodium channels) was 1.6 µM and the ED50 [1] was < 0.5 mg/kg.

In the case of O=c1[nH]cccc1CN1CCC(CO)(CCc2ccccc2)CC1 [Example 256, 3-[4-Hydroxymethyl-4-(2-phenylethyl)piperidino]methyl-1H-pyridin-2-one], the IC50 (sodium channels) is reported as 5.8 µM and the ED50 [1] is reported as 0.5 to 1 mg/kg.

For O=c1[nH]ccnc1CN1CCC(F)(COc2ccccc2F)CC1 [Example 223, 3-[4-Fluoro-4-(2-fluorophenoxymethyl)piperidino]methyl-1H-pyrazin-2-one], the IC50 (sodium channels) was 6 µM and the ED50 [1] was 0.5 to 1 mg/kg.

O=c1[nH]ccnc1CN1CCC(/C=C/c2sccc2Cl)CC1 [Example 168, (E)-3-[4-[2-(3-Chloro-2-thienyl)vinyl]piperidino]methyl-1H-pyrazin-2-one] was tested, and the IC50 (sodium channels) was 2.1 µM and the ED50 [1] was 0.5 to 1 mg/kg.

With O=c1[nH]ccnc1CN1CCC(/C=C/c2cccc(F)c2)CC1 [Example 176, (E)-3-[4-[2-(3-Fluorophenyl)vinyl]piperidino]methyl-1H-pyrazin-2-one] the IC50 (sodium channels) was 5.4 µM and the ED50 [1] was 0.5 to 1 mg/kg.

Cc1ccc(-c2ccccc2)n1CC1(O)CCN(Cc2ccc[nH]c2=O)CC1 [Example 251, 3-[4-Hydroxy-4-(2-methyl-5-phenylpyrrol-1-yl)methyl-piperidino]methyl-1H-pyridin-2-one] gave an IC50 (sodium channels) of 8.4 µM and an ED50 [1] of 0.5 to 1 mg/kg.

COc1ccccc1OCC1CCN(Cc2nc3ccccc3[nH]c2=O)CC1 [Example 205, 3-[4-(2-Methoxyphenoxymethyl)piperidino]methyl-1H-quinoxalin-2-one] showed an IC50 (sodium channels) of 2.6 µM and an ED50 [1] of 0.5 to 1 mg/kg.

With Cc1ccccc1OCC1(CCc2ccccc2F)CCN(Cc2ccc[nH]c2=O)CC1 [Example 128, 3-[4-[2-(2-Fluorophenyl)ethyl]-4-(2-methylphenoxymethyl)piperidino]methyl-1H-pyridin-2-one] the ED50 [1] was 0.5 to 1 mg/kg.

In the case of O=c1[nH]cccc1CN1CCC(F)(COc2ccccc2F)CC1 [Example 124, 3-[4-Fluoro-4-(2-fluorophenoxymethyl)piperidino]methyl-1H-pyridin-2-one], the IC50 (sodium channels) is reported as 7.8 µM and the ED50 [1] is reported as < 0.5 mg/kg.

Cc1ccccc1OCC1CCN(CCc2cncc(=O)[nH]2)CC1 [Example 236, 6-[2-[4-(2-Methylphenoxymethyl)piperidino]ethyl]-1H-pyrazin-2-one] was tested, and the IC50 (sodium channels) was 7 µM and the ED50 [1] was < 0.5 mg/kg.

Cc1ccc(-c2ccccc2)n1CC1(O)CCN(Cc2ncc[nH]c2=O)CC1 [Example 212, 3-[4-Hydroxy-4-(2-methyl-5-phenylpyrrol-1-yl)methyl-piperidino]methyl-1H-pyrazin-2-one] was tested, and the IC50 (sodium channels) was 6.1 µM and the ED50 [1] was 0.5 to 1 mg/kg.

With O=c1[nH]ccnc1CN1CCC(CCc2ccccc2F)C1 (stereo not drawn) [Example 134, 3-[3-[2-(2-Fluorophenyl)ethyl]pyrrolidino]methyl-1H-pyrazin-2-one] the IC50 (sodium channels) was 3.1 µM and the ED50 [1] was 0.5 to 1 mg/kg.

Molecule Cc1cccc(OCC2CCN(Cc3ncc[nH]c3=O)CC2)c1 [Example 153, 3-[4-(3-Methylphenoxymethyl)piperidino]methyl-1H-pyrazin-2-one] has an IC50 (sodium channels) of 4.1 µM and an ED50 [1] of 0.5 to 1 mg/kg.

Work on O=c1[nH]ccnc1CN1CCC(COc2cccc(F)c2)CC1 [Example 162, 3-[4-(3-Fluorophenoxymethyl)piperidino]methyl-1H-pyrazin-2-one] yielded an IC50 (sodium channels) of 4.6 µM and an ED50 [1] of 0.5 to 1 mg/kg.

Cc1ccccc1OCC1(CCc2ccccc2F)CCN(Cc2ncc[nH]c2=O)CC1 [Example 225, 3-[4-[2-(2-Fluorophenyl)ethyl]-4-(2-methylphenoxymethyl)piperidino]methyl-1H-pyrazin-2-one] gave an IC50 (sodium channels) of 1.6 µM and an ED50 [1] of 0.5 to 1 mg/kg.

In the case of Cc1ccccc1C#CC1(O)CCN(Cc2ccc[nH]c2=O)CC1 [Example 259, 3-[4-Hydroxy-4-[(2-methylphenyl)ethynyl]piperidino]methyl-1H-pyridin-2-one], the ED50 [1] is reported as < 0.5 mg/kg.

For O=c1ccnc(CN2CCC(COc3ccccc3F)CC2)[nH]1 [Example 137, 2-[4-(2-Fluorophenoxymethyl)piperidino]methyl-3H-pyrimidin-4-one], the ED50 [1] was 0.5 to 1 mg/kg.

For O=c1[nH]cncc1CN1CCC(COc2ccccc2F)CC1 [Example 230, 5-[4-(2-Fluorophenoxymethyl)piperidino]methyl-3H-pyrimidin-4-one], the ED50 [1] was < 0.5 mg/kg.

For O=c1[nH]ccnc1CCN1CCC(COc2ccccc2F)CC1 [Example 232, 3-[2-[4-(2-Fluorophenoxymethyl)piperidino]ethyl]-1H-pyrazin-2-one], the ED50 [1] was < 0.5 mg/kg.

With O=C(CC1CCN(Cc2ncc[nH]c2=O)CC1)c1ccccc1F [Example 139, 3-[4-[2-(2-Fluorophenyl)-2-oxoethyl]piperidino]methyl-1H-pyrazin-2-one] the ED50 [1] was 0.5 to 1 mg/kg.

Cc1ccccc1OCC1(C#N)CCN(Cc2ccc[nH]c2=O)CC1 [Example 122, 1-(2-Oxo-1,2-dihydro-3-pyridylmethyl)-4-(2-methylphenoxymethyl)piperidine-4-carbonitrile] was tested, and the ED50 [1] was < 0.5 mg/kg.

O=c1cncc(CCN2CCC(/C=C/c3ccccc3F)CC2)[nH]1 [Example 234, (E)-6-[2-[4-(2-(2-Fluorophenyl)vinyl]piperidino]ethyl]-1H-pyrazin-2-one] gave an ED50 [1] of 0.5 to 1 mg/kg.

In the case of O=c1nccc(CCN2CCC(COc3ccccc3F)CC2)[nH]1 [Example 181, 4-[2-[4-(2-Fluorophenoxymethyl)piperidino]ethyl]-3H-pyrimidin-2-one], the ED50 [1] is reported as < 0.5 mg/kg.

For O=C(Cc1ccccc1F)C1CCN(CCc2cncc(=O)[nH]2)CC1 [Example 237, 6-[2-[4-[2-(2-Fluorophenyl)acetyl]piperidino]ethyl]-1H-pyrazin-2-one], the ED50 [1] was 0.5 to 1 mg/kg.

With O=c1cncc(CCN2CCC(COc3ccc(F)cc3)CC2)[nH]1 [Example 246, 6-[2-[4-(4-Fluorophenoxymethyl)piperidino]ethyl]-1H-pyrazin-2-one] the ED50 [1] was 0.5 to 1 mg/kg.

With O=c1[nH]ccnc1CN1CCC(CC(F)c2ccccc2F)CC1 (stereo not drawn) [Example 178, 3-[4-[2-Fluoro-2-(2-fluorophenyl)ethyl]piperidino]methyl-1H-pyrazin-2-one] the ED50 [1] was < 0.5 mg/kg.

For O=c1[nH]cccc1CN1CCC(CCc2ccccc2F)(COc2ccccc2F)CC1 [Example 127, 3-[4-(2-Fluorophenoxymethyl)-4-[2-(2-fluorophenyl)ethyl]piperidino]methyl-1H-pyridin-2-one], the ED50 [1] was 0.5 to 1 mg/kg.

With O=c1[nH]ccnc1CN1CCC(COc2ccc(F)cc2F)CC1 [Example 163, 3-[4-(2,4-Difluorophenoxymethyl)piperidino]methyl-1H-pyrazin-2-one] the ED50 [1] was < 0.5 mg/kg.

With O=c1cncc(CCN2CCC(COc3ccccc3F)CC2)[nH]1 [Example 233, 6-[2-[4-(2-Fluorophenoxymethyl)piperidino]ethyl]-1H-pyrazin-2-one] the ED50 [1] was < 0.5 mg/kg.

With COc1ccccc1OCC1CCN(CCc2cncc(=O)[nH]2)CC1 [Example 240, 6-[2-[4-(2-Methoxyphenoxymethyl)piperidino]ethyl]-1H-pyrazin-2-one] the IC50 (sodium channels) was 6.4 µM.

N#CC1(COc2ccccc2F)CCN(Cc2ncc[nH]c2=O)CC1 [Example 221, 3-[4-Cyano-4-(2-fluorophenoxymethyl)piperidino]methyl-1H-pyrazin-2-one] showed an IC50 (sodium channels) of 4.9 µM.
